Assay results as given in US20100056524A1, “Compound” (priority 2008, published 2010).
Structures can show the parent of a compound that is named as a salt. Where two headings read alike, the source gives them in different places.

Tests used:
Format in all cases: biochemical
[1] = target: T1, PAK4 (Homo sapiens, UniProt O96013); test: PAK4 protein kinase assay; settings: for remaining activity at 10 µM: 10 μM compound; for residual kinase activity PAK4: 1 μm compound; for remaining activity at 1 µM: 1 μM compound
T1 construct: All protein kinases were of human origin and encoded full length proteins, unless indicated otherwise; made in house
T1 sequence (O96013 whole entry): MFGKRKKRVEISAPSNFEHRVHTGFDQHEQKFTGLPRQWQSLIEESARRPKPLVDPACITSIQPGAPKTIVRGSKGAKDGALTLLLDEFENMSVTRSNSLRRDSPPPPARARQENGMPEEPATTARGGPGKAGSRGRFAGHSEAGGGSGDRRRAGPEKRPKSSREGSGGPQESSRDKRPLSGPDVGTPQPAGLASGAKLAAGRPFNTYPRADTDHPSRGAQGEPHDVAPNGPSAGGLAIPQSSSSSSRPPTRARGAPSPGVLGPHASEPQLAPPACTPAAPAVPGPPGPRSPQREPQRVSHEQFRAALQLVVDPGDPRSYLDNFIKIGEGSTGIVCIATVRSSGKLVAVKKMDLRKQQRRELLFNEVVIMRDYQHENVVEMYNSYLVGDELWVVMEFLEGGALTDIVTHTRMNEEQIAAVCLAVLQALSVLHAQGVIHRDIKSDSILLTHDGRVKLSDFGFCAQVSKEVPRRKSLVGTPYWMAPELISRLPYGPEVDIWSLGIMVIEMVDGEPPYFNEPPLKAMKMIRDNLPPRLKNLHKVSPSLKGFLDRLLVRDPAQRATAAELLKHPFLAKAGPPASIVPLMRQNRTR
Text: (§1) All protein kinases were of human origin and encoded full length proteins, unless indicated otherwise. They were either expressed as glutathione S-transferase (GST) fusion proteins in Escherichia Coli or as hexahistidine (His6)-tagged proteins in insect Sf21 cells. GST fusion proteins were purified by affinity chromatography on glutathione-Sepharose, and His6-tagged proteins on nickel/nitriloacetate-agarose. The procedures for expressing some of the protein kinases used herein have been detailed previously.^8,9 The following sections outline the DNA vectors synthesised and the procedures used to express and purifying protein kinases that have not been reported previously.
(§2) All assays (25.5 μl) were carried out at room temperature (21° C.) and were linear with respect to time and enzyme concentration under the conditions used. Assays were performed for 30 min using Multidrop Micro reagent dispensers (Thermo Electron Corporation, Waltham, Mass. 02454, USA) in a 96-well format. The concentration of magnesium acetate in the assays was 10 mM and the [γ-33P] ATP (800 cpm/pmol) was used at 5, 20 or 50 μM as indicated, in order to be at or below the Km for ATP for each enzyme. Protein kinases assayed at 5 μM ATP were: —ERK1, ERK8, PKBα, MARK3, Aurora C. Protein kinases assayed at 20 μM ATP were: —JNK1, PDK1, CHK1, CHK2, CDK2 and Aurora B. Protein kinases assayed at 50 μM ATP were: —MNK2, IKKepsilon and TBK1.
(§3) The assays were initiated with MgATP, stopped by addition of 5 μl of 0.5 M orthophosphoric acid and spotted on to P81 filterplates using a unifilter harvester (PerkinElmer, Boston, Mass. 02118, USA). The IC50 values of inhibitors were determined after carrying out assays at 10 different concentrations of each compound.
(§4) Unless stated otherwise, enzymes were diluted in 50 mM Tris/HCl pH 7.5, 0.1 mM EGTA, 1 mg/ml BSA, 0.1% (v/v) 2-mercaptoethanol and assayed in 50 mM Tris/HCl pH 7.5, 0.1 mM EGTA, 0.1% (v/v) 2-mercaptoethanol.

[2] = target: T2, p38g MAPK (Homo sapiens, UniProt P53778); test: p38g MAPK protein kinase assay; settings: for remaining activity at 10 µM: 10 μM compound; for residual kinase activity p38g MAPK: 1 μm compound; for remaining activity at 1 µM: 1 μM compound
T2 construct: All protein kinases were of human origin and encoded full length proteins, unless indicated otherwise; made in house
T2 sequence (P53778 1-367): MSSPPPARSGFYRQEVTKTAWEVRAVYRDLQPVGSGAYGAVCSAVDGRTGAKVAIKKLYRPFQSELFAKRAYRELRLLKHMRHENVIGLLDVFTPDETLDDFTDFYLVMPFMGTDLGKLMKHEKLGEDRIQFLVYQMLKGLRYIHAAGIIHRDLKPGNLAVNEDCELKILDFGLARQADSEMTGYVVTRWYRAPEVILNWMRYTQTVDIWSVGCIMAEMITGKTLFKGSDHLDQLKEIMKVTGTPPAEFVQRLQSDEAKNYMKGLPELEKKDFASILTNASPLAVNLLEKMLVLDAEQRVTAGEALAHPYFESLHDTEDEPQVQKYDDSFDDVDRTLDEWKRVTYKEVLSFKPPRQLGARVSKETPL
Text: as §1, §2, §3, §4

[3] = target: T3, IKKb (Homo sapiens, UniProt O14920); test: IKKb protein kinase assay; settings: for remaining activity at 10 µM: 10 μM compound; for residual kinase activity IKKb: 1 μm compound; for remaining activity at 1 µM: 1 μM compound
T3 construct: All protein kinases were of human origin and encoded full length proteins, unless indicated otherwise; made in house
T3 sequence (O14920 1-756): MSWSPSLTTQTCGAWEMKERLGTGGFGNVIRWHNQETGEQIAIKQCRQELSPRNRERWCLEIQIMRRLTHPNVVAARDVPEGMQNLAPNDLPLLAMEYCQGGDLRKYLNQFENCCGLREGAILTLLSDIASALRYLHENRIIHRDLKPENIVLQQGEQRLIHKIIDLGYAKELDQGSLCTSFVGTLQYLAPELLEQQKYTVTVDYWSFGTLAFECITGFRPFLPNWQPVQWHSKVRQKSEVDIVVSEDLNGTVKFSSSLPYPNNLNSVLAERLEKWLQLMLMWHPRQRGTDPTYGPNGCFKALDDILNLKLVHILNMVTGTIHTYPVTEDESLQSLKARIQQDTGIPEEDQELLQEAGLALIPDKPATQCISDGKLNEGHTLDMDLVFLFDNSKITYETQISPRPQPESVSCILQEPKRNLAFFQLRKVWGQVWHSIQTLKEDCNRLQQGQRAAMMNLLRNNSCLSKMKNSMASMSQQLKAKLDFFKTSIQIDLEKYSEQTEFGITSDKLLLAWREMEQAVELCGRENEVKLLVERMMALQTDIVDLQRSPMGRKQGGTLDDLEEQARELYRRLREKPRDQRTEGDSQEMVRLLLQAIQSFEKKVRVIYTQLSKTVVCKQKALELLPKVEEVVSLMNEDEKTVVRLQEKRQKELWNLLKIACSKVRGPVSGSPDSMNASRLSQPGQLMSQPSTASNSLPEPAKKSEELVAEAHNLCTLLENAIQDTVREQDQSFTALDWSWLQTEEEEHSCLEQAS
Text: as §1, §2, §3, §4

[4] = target: T4, DYRK2 (Homo sapiens, UniProt Q92630); test: DYRK2 protein kinase assay; settings: for remaining activity at 10 µM: 10 μM compound; for residual kinase activity DYRK2: 1 μm compound; for remaining activity at 1 µM: 1 μM compound
T4 construct: All protein kinases were of human origin and encoded full length proteins, unless indicated otherwise; made in house
T4 sequence (Q92630 1-601): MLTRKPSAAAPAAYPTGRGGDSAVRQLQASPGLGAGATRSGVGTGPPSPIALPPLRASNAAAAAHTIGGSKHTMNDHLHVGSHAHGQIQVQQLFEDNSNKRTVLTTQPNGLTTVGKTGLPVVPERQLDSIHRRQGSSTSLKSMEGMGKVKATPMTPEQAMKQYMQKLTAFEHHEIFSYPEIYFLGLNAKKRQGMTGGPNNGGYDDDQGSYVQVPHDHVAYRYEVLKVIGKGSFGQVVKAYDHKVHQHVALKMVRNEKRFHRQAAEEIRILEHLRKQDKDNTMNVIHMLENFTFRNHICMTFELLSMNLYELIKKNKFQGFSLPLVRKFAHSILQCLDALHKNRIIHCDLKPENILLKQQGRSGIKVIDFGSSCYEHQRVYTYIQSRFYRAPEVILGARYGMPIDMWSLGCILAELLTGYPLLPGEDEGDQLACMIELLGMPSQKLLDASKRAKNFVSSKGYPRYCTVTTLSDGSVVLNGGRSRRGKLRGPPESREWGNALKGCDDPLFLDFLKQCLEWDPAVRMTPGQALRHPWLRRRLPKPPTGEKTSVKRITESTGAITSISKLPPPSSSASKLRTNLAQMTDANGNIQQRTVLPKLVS
Text: as §1, §2, §3, §4

[5] = target: T5, PRK2 (Homo sapiens, UniProt Q16513); test: PRK2 protein kinase assay; settings: for remaining activity at 10 µM: 10 μM compound; for residual kinase activity PRK2: 1 μm compound; for remaining activity at 1 µM: 1 μM compound
T5 construct: All protein kinases were of human origin and encoded full length proteins, unless indicated otherwise; made in house
T5 sequence (Q16513 501-984 limits assumed): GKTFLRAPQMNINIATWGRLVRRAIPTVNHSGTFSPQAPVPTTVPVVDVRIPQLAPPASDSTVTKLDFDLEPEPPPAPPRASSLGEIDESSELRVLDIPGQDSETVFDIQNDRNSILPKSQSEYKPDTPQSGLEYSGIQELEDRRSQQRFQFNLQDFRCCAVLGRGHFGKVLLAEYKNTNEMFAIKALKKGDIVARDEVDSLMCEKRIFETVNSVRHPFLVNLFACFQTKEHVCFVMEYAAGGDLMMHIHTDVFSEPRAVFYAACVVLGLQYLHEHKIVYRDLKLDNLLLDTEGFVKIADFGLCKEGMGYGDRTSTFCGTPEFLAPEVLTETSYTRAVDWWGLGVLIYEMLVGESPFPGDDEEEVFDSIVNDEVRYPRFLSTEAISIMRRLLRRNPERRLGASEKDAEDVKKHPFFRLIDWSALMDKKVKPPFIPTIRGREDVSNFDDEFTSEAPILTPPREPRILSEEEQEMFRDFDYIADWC
Text: as §1, §2, §3, §4

[6] = read-out: residual kinase activity PAK4
[7] = read-out: residual kinase activity p38g MAPK
[8] = read-out: residual kinase activity IKKb
[9] = read-out: residual kinase activity DYRK2
[10] = read-out: residual kinase activity PRK2
[11] = PAK4, read-out: residual kinase activity
[12] = p38g MAPK, read-out: residual kinase activity
[13] = IKKb, read-out: residual kinase activity
[14] = DYRK2, read-out: residual kinase activity
[15] = PRK2, read-out: residual kinase activity

| SMILES | remaining activity at 10 µM [1, 6] [%] | residual kinase activity PAK4 [1] [%] | remaining activity at 10 µM [2, 7] [%] | residual kinase activity p38g MAPK [2] [%] | remaining activity at 10 µM [3, 8] [%] | residual kinase activity IKKb [3] [%] | remaining activity at 10 µM [4, 9] [%] | residual kinase activity DYRK2 [4] [%] | remaining activity at 10 µM [5, 10] [%] | residual kinase activity PRK2 [5] [%] | remaining activity at 1 µM [1, 11] [%] | remaining activity at 10 µM [1, 11] [%] | remaining activity at 1 µM [2, 12] [%] | remaining activity at 10 µM [2, 12] [%] | remaining activity at 1 µM [3, 13] [%] | remaining activity at 10 µM [3, 13] [%] | remaining activity at 1 µM [4, 14] [%] | remaining activity at 10 µM [4, 14] [%] | remaining activity at 1 µM [5, 15] [%] | remaining activity at 10 µM [5, 15] [%] |
| --- | --- | --- | --- | --- | --- | --- | --- | --- | --- | --- | --- | --- | --- | --- | --- | --- | --- | --- | --- | --- |
| O=C(NCCCNc1nc(Nc2cccc(F)c2)ncc1Br)C1CCC1 [Compound A, cyclobutanecarboxylic acid {3-[5-bromo-2-(3-fluoro-phenylamino)-pyrimidin-4-ylamino]-propyl}-amide, reference compound] | 6 | 32 | 17 | 65 | 66 | 93 | 6 | 36 | 4 | 24 | – | – | – | – | – | – | – | – | – | – |
| O=C(NCCCNc1nc(Nc2cccc(F)c2)ncc1C1CC1)C1CCC1 [Example 23, Cyclobutanecarboxylic acid {3-[5-cyclopropyl-2-(3-fluoro-phenylamino)-pyrimidin-4-ylamino]-propyl}-amide] | 31 | 72 | 91 | 81 | 80 | 75 | 50 | 67 | 60 | 67 | 72 | 31 | 81 | 91 | 75 | 80 | 67 | 50 | 67 | 60 |
| O=C(NCCCNc1nc(Nc2cccc(N3CCCC3=O)c2)ncc1C1CC1)c1cccs1 [Example 47, Thiophene-2-carboxylic acid (3-{5-cyclopropyl-2-[3-(2-oxo-pyrrolidin-1-yl)-phenylamino]-pyrimidin-4-ylamino}-propyl)-amide. Hydrochloride salt] | – | – | – | – | – | – | – | – | – | – | 80 | 57 | 97 | 77 | 91 | 86 | 81 | 63 | 76 | 68 |
| O=C(NCCCNc1nc(Nc2cccnc2)ncc1C1CC1)c1cccs1 [Example 50, Thiophene-2-carboxylic acid {3-[5-cyclopropyl-2-(pyridin-3-ylamino)-pyrimidin-4-ylamino]-propyl}-amide] | – | – | – | – | – | – | – | – | – | – | 75 | 35 | 93 | 80 | 90 | 88 | 76 | 38 | 68 | 58 |
